Assay results taken from PubChem BioAssay AID264 (DTP/NCI, 2004).
Values joined by “and” are separate entries in the source; they are usually repeats but may differ in a detail not shown here. Equal values may be shown once. Results filed as inconclusive are left out.

Tested on: nude mice, LX-1 lung xenograft intrarenal, tumor weight T/C
Assay: NCI In Vivo Anticancer Drug Screen. Data for tumor model Human Lung LX-1 Xenograft (intrarenal inoculation) in NU/NU Swiss (nude) mice
Conditions: endpoint: mean tumor weight change, higher = larger tumour
Procedure: The antitumor activity of compounds was measured in mice bearing transplantable tumors. Survival or tumor size were measured and the results are expressed as the measurement made in the treated group (T) divided by the measurement made in the vehicle treated control group (C). The tumor model used in this assay is Human Lung LX-1 Xenograft (intrarenal inoculation) in NU/NU Swiss (nude) mice

[1] = dose: 300.0 mg/kg/injection, schedule: Q04DX003 (sc), vehicle: Klucel (hydroxypropylcellulose) (HPC)
[2] = dose: 600.0 mg/kg/injection, schedule: Q04DX003 (sc), vehicle: Klucel (hydroxypropylcellulose) (HPC)
[3] = dose: 1200.0 mg/kg/injection, schedule: Q04DX003 (sc), vehicle: Klucel (hydroxypropylcellulose) (HPC)
[4] = dose: 2400.0 mg/kg/injection, schedule: Q04DX003 (sc), vehicle: Klucel (hydroxypropylcellulose) (HPC)
[5] = dose: 300.0 mg/kg/injection, schedule: Q04DX003 (sc), vehicle: suspension in saline
[6] = dose: 600.0 mg/kg/injection, schedule: Q04DX003 (sc), vehicle: suspension in saline
[7] = dose: 1200.0 mg/kg/injection, schedule: Q04DX003 (sc), vehicle: suspension in saline
[8] = dose: 100.0 mg/kg/injection, schedule: Q04DX003 (sc), vehicle: saline with Tween-80
[9] = dose: 1.0 mg/kg/injection, schedule: Q01DX010 (sc), vehicle: saline
[10] = dose: 2.0 mg/kg/injection, schedule: Q01DX010 (sc), vehicle: saline

CCCCNC(C)C1(O)Cc2c(O)c3c(c(O)c2C(OC2CC(N)C(O)C(C)O2)C1)C(=O)c1c(OC)cccc1C3=O (stereo not given)
T/C (dose: 300.0 mg/kg/injection, schedule: Q04DX003 (sc), vehicle: water): 99 % of control
T/C (dose: 600.0 mg/kg/injection, schedule: Q04DX003 (sc), vehicle: water): 84 % of control

O=P(O)(NCCCl)NCCCl
T/C (dose: 150.0 mg/kg/injection, schedule: Q04DX003 (sc), vehicle: saline): 33 % of control

Cc1cc2c(C(C)C)c(O)c(O)c(C=O)c2c(O)c1-c1c(C)cc2c(C(C)C)c(O)c(O)c(C=O)c2c1O
T/C (dose: 37.5 mg/kg/injection, schedule: Q04DX003 (sc), vehicle: saline with Tween-80): 85 % of control
T/C (dose: 75.0 mg/kg/injection, schedule: Q04DX003 (sc), vehicle: saline with Tween-80): 75 % of control

NC1(C(=O)O)CCCC1
T/C (dose: 12.0 mg/kg/injection, schedule: Q01DX010 (sc), vehicle: saline): 94 % of control
T/C (dose: 24.0 mg/kg/injection, schedule: Q01DX010 (sc), vehicle: saline): 66 % of control
T/C (dose: 48.0 mg/kg/injection, schedule: Q01DX010 (sc), vehicle: saline): 57 % of control
T/C (dose: 50.0 mg/kg/injection, schedule: Q01DX010 (sc), vehicle: saline): 32 % of control
T/C (dose: 96.0 mg/kg/injection, schedule: Q01DX010 (sc), vehicle: saline): 29 % of control

C=C1C(=O)C2=CC1CCC(=O)C1(C)CCC(OC(C)=O)C(C)(C)C1CC2O (stereo not given)
T/C (dose: 60.0 mg/kg/injection, schedule: Q04DX003 (sc), vehicle: Klucel (hydroxypropylcellulose) (HPC)): 121 % of control
T/C (dose: 120.0 mg/kg/injection, schedule: Q04DX003 (sc), vehicle: Klucel (hydroxypropylcellulose) (HPC)): 57 % of control

C[C@H](N)C(=O)N[C@@H]1[C@H]2C(=C(O)C[C@@H](O)[C@@H]2O)C(=O)O[C@@H]1C
T/C (dose: 300.0 mg/kg/injection, schedule: Q04DX003 (sc), vehicle: saline): 113 % of control
T/C (dose: 600.0 mg/kg/injection, schedule: Q04DX003 (sc), vehicle: saline): 160 % of control
T/C (dose: 900.0 mg/kg/injection, schedule: Q04DX003 (sc), vehicle: saline): 54 % of control
T/C (dose: 1200.0 mg/kg/injection, schedule: Q04DX003 (sc), vehicle: saline): 92 % of control and 115 % of control
T/C (dose: 1800.0 mg/kg/injection, schedule: Q04DX003 (sc), vehicle: saline): 78 % of control

c1ccc([C@H]2CN3CCSC3=N2)cc1
T/C (dose: 30.0 mg/kg/injection, schedule: Q04DX003 (sc), vehicle: saline): 103 % of control
T/C (dose: 60.0 mg/kg/injection, schedule: Q04DX003 (sc), vehicle: saline): 121 % of control

O=c1oc2c(O)c(O)cc3c(=O)oc4c(O)c(O)cc1c4c23
T/C (dose: 150.0 mg/kg/injection, schedule: Q04DX003 (sc), vehicle: Klucel (hydroxypropylcellulose) (HPC)): 215 % of control
T/C [1]: 86 % of control
T/C [2]: 88 % of control
T/C [3]: 81 % of control

CCc1ccccc1N1CCN(C(=O)c2cc(OC)c(OC)c(OC)c2)CC1
T/C [1]: 62 % of control
T/C [2]: 34 % of control
T/C [3]: 33 % of control
T/C [4]: 30 % of control

O=C(CCCN1CCC(O)(c2cccc(C(F)(F)F)c2)CC1)c1ccc(F)cc1
T/C (dose: 6.25 mg/kg/injection, schedule: Q01DX010 (sc), vehicle: Klucel (hydroxypropylcellulose) (HPC)): 52 % of control
T/C (dose: 12.5 mg/kg/injection, schedule: Q01DX010 (sc), vehicle: Klucel (hydroxypropylcellulose) (HPC)): 96 % of control
T/C (dose: 25.0 mg/kg/injection, schedule: Q01DX010 (sc), vehicle: Klucel (hydroxypropylcellulose) (HPC)): 60 % of control
T/C (dose: 50.0 mg/kg/injection, schedule: Q01DX010 (sc), vehicle: Klucel (hydroxypropylcellulose) (HPC)): 45 % of control and 54 % of control

CCCCc1ccc2nc(NC(=O)OC)[nH]c2c1
T/C (dose: 100.0 mg/kg/injection, schedule: Q01DX010 (sc), vehicle: saline with Tween-80): 53 % of control and 78 % of control
T/C (dose: 1600.0 mg/kg/injection, schedule: Q01DX010 (sc), vehicle: saline with Tween-80): 84 % of control

CCC(=O)N(C)[C@@H](C)C(=O)O[C@H]1CC(=O)N(C)c2cc(cc(OC)c2Cl)C/C(C)=C/C=C[C@@H](OC)[C@@]2(O)C[C@H](OC(=O)N2)[C@@H](C)[C@@H]2O[C@@]12C
T/C (dose: 0.13 mg/kg/injection, schedule: Q01DX010 (sc), vehicle: saline + alcohol): 106 % of control
T/C (dose: 0.25 mg/kg/injection, schedule: Q01DX010 (sc), vehicle: saline + alcohol): 31 % of control

CCOC(=O)C1=C(C#N)C2(CCC(OCc3ccccc3)CC2)C(=O)O1 (stereo not given)
T/C [5]: 106 % of control
T/C [6]: 111 % of control
T/C [7]: 77 % of control

Cc1cc2c(c3oc(C4(C)OC4C4OC4C)cc(=O)c13)C(=O)c1c(O)c(C3CC(C)(N(C)C)C(O)C(C)O3)cc(C3CC(N(C)C)C(O)C(C)O3)c1C2=O (stereo not given)
T/C (dose: 0.03 mg/kg/injection, schedule: Q01DX010 (sc), vehicle: saline): 57 % of control
T/C (dose: 0.06 mg/kg/injection, schedule: Q01DX010 (sc), vehicle: saline): 66 % of control

C[C@H]1C[C@@H]2[C@H]([C@@H](O)C[C@@]3(C)[C@H]2CC[C@]3(O)C(=O)CO)[C@@]2(C)C=CC(=O)C=C12
T/C (dose: 200.0 mg/kg/injection, schedule: Q04DX003 (sc), vehicle: Klucel (hydroxypropylcellulose) (HPC)): 76 % of control
T/C (dose: 400.0 mg/kg/injection, schedule: Q04DX003 (sc), vehicle: Klucel (hydroxypropylcellulose) (HPC)): 58 % of control
T/C (dose: 800.0 mg/kg/injection, schedule: Q04DX003 (sc), vehicle: Klucel (hydroxypropylcellulose) (HPC)): 59 % of control

COc1cccc2c1C(=O)c1c(O)c3c(c(O)c1C2=O)C[C@@](O)(/C(C)=N/NC(=O)c1ccc(Cl)cc1)C[C@@H]3OC1CC(N)C(O)C(C)O1 (stereo not given in full)
T/C (dose: 4.0 mg/kg/injection, schedule: Q01DX010 (sc), vehicle: water): 156 % of control
T/C (dose: 6.0 mg/kg/injection, schedule: Q04DX003 (sc), vehicle: water): 64 % of control
T/C (dose: 8.0 mg/kg/injection, schedule: Q01DX010 (sc), vehicle: water): 42 % of control
T/C (dose: 16.0 mg/kg/injection, schedule: Q01DX010 (sc), vehicle: water): 43 % of control
T/C (dose: 96.0 mg/kg/injection, schedule: Q04DX003 (sc), vehicle: water): 20 % of control and 33 % of control

O=C(Nc1ccc(C2=NCCN2)cc1)c1ccc(C(=O)Nc2ccc(C3=NCCN3)cc2)c(Cl)c1
T/C (dose: 12.5 mg/kg/injection, schedule: Q01DX010 (sc), vehicle: water): 74 % of control
T/C (dose: 25.0 mg/kg/injection, schedule: Q01DX010 (sc), vehicle: water): 71 % of control
T/C (dose: 50.0 mg/kg/injection, schedule: Q01DX010 (sc), vehicle: water): 34 % of control

CCN(CC)CCOC(=O)Cc1cccc2c(=O)cc(-c3ccccc3)oc12
T/C [8]: 112 % of control
T/C (dose: 200.0 mg/kg/injection, schedule: Q04DX003 (sc), vehicle: saline with Tween-80): 44 % of control

N#CCCN(C(=S)Nc1cccc(C(F)(F)F)c1)C1CCCCC1
T/C [1]: 60 % of control
T/C [2]: 55 % of control
T/C [3]: 77 % of control
T/C [4]: 80 % of control

COc1ccc(/C=C/C(=O)c2cc(C(=O)O)c(OC)cc2OC)cc1OC
T/C [5]: 100 % of control
T/C [6]: 56 % of control
T/C [7]: 73 % of control
T/C (dose: 2400.0 mg/kg/injection, schedule: Q04DX003 (sc), vehicle: suspension in saline): 66 % of control

CC(=S)NC(O)C(=O)c1ccccc1 (stereo not given)
T/C (dose: 150.0 mg/kg/injection, schedule: Q04DX003 (sc), vehicle: saline with Tween-80): 109 % of control
T/C (dose: 600.0 mg/kg/injection, schedule: Q04DX003 (sc), vehicle: saline with Tween-80): 63 % of control
T/C (dose: 1200.0 mg/kg/injection, schedule: Q04DX003 (sc), vehicle: saline with Tween-80): 99 % of control

C=CCOCC1CO1 (stereo not given)
T/C (dose: 100.0 mg/kg/injection, schedule: Q01DX010 (sc), vehicle: saline): 87 % of control
T/C (dose: 200.0 mg/kg/injection, schedule: Q01DX010 (sc), vehicle: saline): 104 % of control
T/C (dose: 400.0 mg/kg/injection, schedule: Q01DX010 (sc), vehicle: saline): 69 % of control

C=C1N(C)c2ccccc2C1(C)C
T/C (dose: 50.0 mg/kg/injection, schedule: Q04DX003 (sc), vehicle: saline with Tween-80): 80 % of control
T/C [8]: 76 % of control

COc1cccc2c1C(=O)c1c(O)c3c(c(O)c1C2=O)C[C@@](O)(C(C)=O)C[C@@H]3OC1CC(N)C(O)C(C)O1 (stereo not given in full)
T/C (dose: 0.5 mg/kg/injection, schedule: Q01DX010 (sc), vehicle: saline): 45 % of control
T/C [9]: 12 % of control
T/C [10]: 19 % of control
T/C (dose: 4.0 mg/kg/injection, schedule: Q01DX010 (sc), vehicle: saline): 21 % of control

OC(C1CO1)C(O)C1CO1 (stereo not given)
T/C [9]: 73 % of control
T/C [10]: 66 % of control
